In patent publication US20200255828A1, “METHODS AND COMPOSITIONS FOR ALTERING FUNCTION AND STRUCTURE OF CHROMATIN LOOPS AND/OR DOMAINS” (THE BROAD INSTITUTE, INC., priority 2017, published 2020):

Tests used:
HCT-116 RAD21-mAC cells [1] = experiment: In situ Hi-C: contact domains and genome compartmentalization (Arrowhead corner score, eigenvector, sliding correlation score); assay type: cell-based, human
Source text: Domains were annotated in both untreated and treated maps using Arrowhead (Durand et al., 2016b; Rao et al., 2014). Domains were called at 5 kb and 10 kb resolutions using default parameters and merged (retaining the 5 kb domain annotation for any pair of domains annotated in both the 5 kb and 10 kb annotations). Applicants annotated 9,845 domains in our untreated maps and 2,090 domains in our treated maps.
The most common method used for classifying Hi-C patterns is the principal component (PC) approach, which Applicants introduced in (Lieberman-Aiden et al., 2009). In this approach, each intrachromosomal contact matrix is converted to an observed/expected matrix, and the first principal component of this matrix is used to bifurcate the data into two clusters.
Applicants first calculated the first three principal components of the 25-kb resolution observed/expected matrix for each chromosome (constructed using Juicer) using scikit learn's RandomizedPCA function. Applicants chose the principal component most correlated with GC content and assigned sign such that the vector was positively correlated with the GC content vector. Applicants then calculated the correlation of the eigenvector for each chromosome between untreated and treated maps. The mean correlation was 0.968.
To identify transitions in compartment state at higher resolution, Applicants used a combination of techniques. First, Applicants calculated an edge score using an algorithm similar to Canny edge detection. For every 25 kb locus in the genome, Applicants looked at the corresponding column of the 25 kb log 2(observed/expected) matrix. For every pixel (i,j) in column j, Applicants calculated a gradient=[i,j:j+3]−[i,j−4,j−1]. Applicants then searched for stretches of at least 7 pixels in the column with a gradient x such that abs(x) was greater than 0.5. […] Finally, Applicants summed the number of pixels in a column belonging to an edge to calculate the edge score for a locus. Applicants then called local peaks in this track which could correspond to compartment state transitions since a compartment state transition at locus I will create an edge between locus i−1 and i.
As described in Section V.a.3 of Rao et al., 2014, this is akin to measures in finance that correlate returns of prices to identify similarities between stocks. To calculate this sliding derivative correlation score, Applicants calculated the gradient in the log 2(observed/expected) matrix over every boundary called in our edge score track. More specifically, for every locus i, and all boundaries j in boundary set J that were within 15 Mb of i, Applicants calculated the difference of mean ([j:j+5,i]) and mean ([j−6:j−1,i]). Applicants then calculated the Spearman correlation coefficient of these two vectors (one vector for the gradients at all boundaries j in J for the pixels upstream of i, and one vector for the pixels downstream of i). Applicants excluded the derivative signal at pixels not located at compartment state transitions as defined by the edge score to reduce noise, reasoning that pixels inside compartment intervals were unlikely to contribute meaningful rises/falls in contact probability. Similarly, Applicants only included pixels within 15 mb of i to reduce the noise arising from sparsity far off the diagonal.
Applicants then identified compartment boundaries by calling local peaks in the edge score track and local valleys in the sliding derivative correlation score track and merging the two peak call lists.
To assess the presence and strength of contact domains after auxin treatment, Applicants used the Arrowhead algorithm (Durand et al., 2016b; Rao et al., 2014). The Arrowhead algorithm calculates a corner score for every pixel, where higher corner score values represent a higher likelihood that a pixel is at the corner of a domain (see Section IV. a.3 of the Extended Experimental Procedures of Rao et al., 2014). […]

HCT-116 RAD21-mAC cells [2] = experiment: APA for cohesin-independent links after cohesin degradation with ATP depletion; assay type: cell-based, human; details: auxin 6 hours, without any additional treatment
Source text: Using the degron system, Applicants can directly measure the influence of cellular processes on loop formation (Vian et al, 2018). […] Applicants also tested interchromasomal cohesin-independent links requirement for ATP after cohesin degradation and observed that depletion of ATP strengthens the interactions between superenhancers (FIG. 23).

RAD21-mAC cells = experiment: Gene expression changes between untagged HCT-116 cells and auxin-treated RAD21-mAC cells; assay type: cell-based; details: auxin-treated RAD21-mAC cells compared with untagged HCT-116 cells
Source text: To our surprise, Applicants only identified 68 cell type specific loops (compared to […] each per pair of cell types in Rao et al 2014). In order to increase statistical power, Applicants identified 518 loops that had been called in one of our cell types in Rao et al 2014 (HMEC, IMR90, K562, HUVEC, HeLa, NHEK) but not in GM12878, or vice versa and had been associated with 10-fold upregulation of a gene whose promoter lay at the loop anchor. Applicants sought to then identify cases where these loop-gene pairs were present in HCT-116 to then examine the results of loop loss. However, only 15 of the 518 loops were conserved in HCT-116. […] Alternatively, it is possible that the tagging of cohesin and resulting potential loss of stability results in preferential loss of cell type specific loops. […] In fact, it may be the case that some other regulatory event catalyzes both loop formation and gene activation, or that gene activation itself enables loop formation.

For `O=C(O)Cc1c[nH]c2ccccc12` [auxin, indole-3-acetic acid], the “dip in sliding correlation in treated cells, H3K27me3 transitions spanned by loop domains” value (HCT-116 RAD21-mAC cells [1]; 209 transitions, untreated 0.01 increase) was 0.03, the “dip in sliding correlation in treated cells, H3K27Ac transitions spanned by loop domains” value (HCT-116 RAD21-mAC cells [1]; 264 transitions, untreated 0.02) was 0.19 and the “dip in sliding correlation in treated cells, H3K27Ac transitions at loop domain boundaries” value (HCT-116 RAD21-mAC cells [1]; 307 transitions, untreated 0.41) was 0.49. For the same molecule, the “decrease in sliding correlation score in treated cells, compartment boundaries contained within loop domains” value (HCT-116 RAD21-mAC cells [1]; 349 boundaries, untreated 0.10) was 0.31, the “decrease in sliding correlation score in treated cells, H3K27Ac transitions at loop anchors” value (HCT-116 RAD21-mAC cells [1]; 381 transitions, untreated 0.10) was 0.26 and the “dip in sliding correlation in treated cells, H3K27me3 transitions at loop domain boundaries” value (HCT-116 RAD21-mAC cells [1]; 384 transitions, untreated 0.29) was 0.33. For the same molecule, the “decrease in sliding correlation score in treated cells, compartment boundaries at loop domain anchors” value (HCT-116 RAD21-mAC cells [1]; 389 boundaries, untreated 0.35) was 0.53, the “decrease in sliding correlation score in treated cells, H3K27me3 transitions spanned by loops” value (HCT-116 RAD21-mAC cells [1]; 391 transitions, untreated 0.27) was 0.31 and the “decrease in sliding correlation score in treated cells, H3K27Ac transitions spanned by loops” value (HCT-116 RAD21-mAC cells [1]; 426 transitions, untreated 0.41) was 0.50. The “decrease in sliding correlation score in treated cells, H3K27me3 transitions at loop anchors” value (HCT-116 RAD21-mAC cells [1]; 469 transitions, untreated 0.03) was 0.12, the “mean Pearson's r of Hi-C correlation map eigenvectors, untreated vs auxin treated” value (HCT-116 RAD21-mAC cells [1]; across all chromosomes) was 0.968 and the “APA score for cohesin-independent links” value (HCT-116 RAD21-mAC cells [2]) was 8.28. The “genes with a greater than 5-fold change in expression” value (RAD21-mAC cells) was 3.
